{"source": "patent US10228365B2", "about": "“Method for measuring carbohydrate metabolism ability, and composition for use in said method” (priority 2012, dated 2019)", "key": {"[1]": {"test_system": "glucose metabolism ability", "conditions": "rat, in vivo, iv", "quoted_text": "Fasted rats (male, SD rats) as experimental animals were divided into four groups (n=4 per group). The above-prepared ^13C-glucose solutions were individually intravenously administered to the rats in each group (1-^13-Glc-administration group, 2-^13C-Glc-administration group, 3-^13C-Glc-administration group, and U-^13-Glc-adrainistration group) in an amount of 1 mL/kg. Expired air was collected before the administration of each ^13C-glucose solution (0 minutes) and at each point in time (10, 20, 30, 40, 50, 60, 80, 100, and 120 minutes) after the administration of each ^13C-glucose solution, Δ^13C(‰) was determined with a mass spectrometer for expired air analysis (ABCA: produced by Sercon) from the concentration of ^13CO2 excreted in the expired air.\nThe Δ^13C(‰) was determined by measuring the ^13CO2/^12CO2 concentration ratio (δ^13C value) in the expired air before the administration of each ^13C-glucose solution (0 minutes) and in the expired air at each point in time for collecting the expired air (t minutes) after the administration of each ^13C-glucose solution, and calculating Δ^13C(‰) from the difference between the δ^13C value (δ^13Ct) at each collection point in time (t) and the δ^13C value (δ^13C0) before the administration (δ^13Ct−δ^13C0) (the same applies to the below-described Experimental Examples)."}, "[2]": {"test_system": "glucose metabolism ability", "assay": "Breath test under fasting and glucose-loaded conditions", "assay_type": "in vivo, rats (OLETF, LETO)", "description": "OLETF rats, which are diabetic animal models, were used as experimental animals, and LETO rats were used as a control. More specifically, after being fasted for 20 hours, Group 1 (control group: […], male, n=5) and Group 2 (diabetes group; OLETF rats, male, n=6) were subjected to the following test.\nAn aqueous U-^13C-glucose solution (50 μmol/4 mL/kg) was orally administered to Group 1 (control group) and Group 2 (diabetes group) under fasting conditions. In each group, expired air was collected before the U-^13C-glucose administration (0 minutes) and at each point in time (10, 20, 30, 40, 50, 60, 80, 100, and 120 minutes) after the U-^13C-glucose administration. Δ^13C(‰) was determined with a mass spectrometer for expired air analysis (ABCA: produced by Sercon) from the concentration of ^13CO2 excreted in the expired air.\n• (2-2-1) An aqueous glucose solution (450 mg/4 mL/kg) and an aqueous U-^13C-glucose solution (50 μmol/4 mL/kg) were orally administered simultaneously to the experimental animals of (1), i.e., Group 1 (control group) and Group 2 (diabetes group). As in (2-1), expired air was collected in each group before the U-^13C-glucose administration (0 minutes) and at each, point in time (10, 20, 30, 40, 50, 60, 80, 100, and 120 minutes) after the U-^13C-glucose administration. Δ^13C(‰) was determined from the concentration of ^13CO2 excreted in the expired air. […]"}, "[3]": {"test_system": "glucose metabolism ability", "assay": "Evaluation of treatment effect of a therapeutic agent for diabetes with U-13C-glucose breath test", "assay_type": "in vivo, ZDF rats", "conditions": "300 mg/kg oral for three days; for expired air pattern (changes in the Δ13C(‰)) after vs before administration: non-fasting, FIG. 12", "description": "Three groups of ZDF rats (Group A: healthy group (n=4), Group B: diabetes severe onset group (n=6), and Group C: diabetes moderate onset group (n=6)) were used as experimental animals. In the experiment, these ZDF rats were allowed free access to water and feed (containing saccharide, fat, and protein) (MF: Oriental Yeast Co., Ltd.). More specifically, the following experiment was performed under non-fasting conditions.\nMetformin (Wako Pure Chemical Industries, Ltd., which is an active ingredient of biguanide therapeutic agents for diabetes (generic name: Melbin), was orally administered to the rats of these groups in an amount of 300 mg/kg every morning for three days. A U-^13C-glucose solution prepared by the method described in (1) of Experimental Example 1 was intravenously administered 3 hours after the administration of metformin on day 3.\nExpired air was collected in the rats of each group before the U-^13-glucose administration (0 minutes) and at each point in time (10, 20, 30, 40, 50, 60, 80, 100, and 120 minutes) after the U-^13C-glucose administration. Δ^13(‰) was determined with a mass spectrometer for expired air analysis (ABCA: produced by Sercon) from the concentration of ^13CO2 excreted in the expired air."}, "[4]": {"test_system": "glucose metabolism ability", "assay": "Evaluation of treatment effect after administration of insulin with 1-13C-glucose breath test", "assay_type": "in vivo, rats (Wistar", "conditions": "STZ rats, FIG. 13", "description": "A control group (Wistar rats, male, n=3) and a type 1 diabetes group (STZ rats, male, n=3) were used as experimental animals. In the experiment, these rats were allowed free access to water and feed (containing saccharide, fat, and protein) (MF: Oriental Yeast Co., Ltd.). More specifically, the following experiment was performed under non-fasting conditions.\nRats one week after STZ (streptosocin: SIGMA) were intravenously administered in an amount of 65 mg/mL/kg was used as the type 1 diabetes group (STZ rats).\nInsulin (SIGMA) was subcutaneously administered to the type 1 diabetes group in an amount of 30 U/body. […] Expired air was collected in the rats of the groups (control group, type 1 diabetes group, insulin-administered 4 h-diabetes group, and insulin-administered 24 h-diabetes group) before the 1-^13C-glucose administration (0 minutes) and at each point in time (10, 20, 30, 40, 50, 60, 80, 100, and 120 minutes) after the 1-^13C-glucose administration. Δ^13C(‰) was determined with a mass spectrometer for expired air analysis (ABCA: produced by Sercon) from the concentration of ^13CO2 excreted in the expired air."}}}
{"compound": "OC[C@H]1OC(O)[C@H](O)[13C@@H](O)[C@@H]1O", "note": "(stereo partly drawn) [3-^13C-glucose]", "values": [{"measurement": "Δ13C(‰) in the expired air up to 30 minutes after the glucose solution administration (rank among 13C-glucoses)", "setting": "[1]", "result": "highest"}]}
{"compound": "OC[C@H]1OC(O)[C@H](O)[C@@H](O)[C@@H]1O", "note": "(stereo partly drawn) [U-^13C-glucose]", "values": [{"measurement": "difference between the Δ13C(‰) value of Group 1 (control group) and Group 2 (diabetes group)", "setting": "[2]; fasting conditions, oral 50 μmol/4 mL/kg, FIG. 6", "result": "small"}, {"measurement": "difference in the expired air response between Group 1 (control group) and Group 2 (diabetes group)", "setting": "[2]; rat, in vivo", "result": "further widened"}, {"measurement": "expired air pattern of Group 1 (control group) compared with Group 2 (diabetes group)", "setting": "[2]; rat, in vivo", "result": "significantly high"}]}
{"compound": "CN(C)C(=N)N=C(N)N", "note": "[therapeutic agent for diabetes, Metformin]", "values": [{"measurement": "expired air pattern (changes in the Δ13C(‰)) after vs before administration", "setting": "[3]; Group B diabetes severe onset", "result": "higher values"}, {"measurement": "expired air pattern (changes in the Δ13C(‰)) after vs before administration", "setting": "[3]; Group C diabetes moderate onset", "result": "higher values"}, {"measurement": "glucose metabolism ability", "setting": "[3]; diabetes onset groups B and C", "result": "enhanced"}]}
{"compound": "insulin: Insulin (SIGMA), subcutaneously administered", "values": [{"measurement": "Δ13C(‰) compared with control group", "setting": "[4]; 4 hours after 30 U/body subcutaneous", "result": "almost the same as that of the control group"}, {"measurement": "expired air pattern (change in the Δ13C(‰))", "setting": "[4]; 24 hours after 30 U/body subcutaneous", "result": "low value"}]}
